Results from article PMC11235583, “Structural basis of odor sensing by insect heteromeric odorant receptors” (Science (New York, N.Y.), 2024).
Blank lines part the entries; values can stand above or below the molecule they belong to.

Assays:
[1] = target: T1, AaOR10/Orco (Ae. aegypti OR10 with A. bakeri Orco) (Aedes aegypti, UniProt Q177X3); test: whole-cell voltage clamp, HEK293T cells; type: cell-based; conditions: agonist
T1 construct: gene GPRor10; co-expressed in HEK293 cells; with Odorant receptor coreceptor (Apocrypta bakeri)
T1 sequence (Q177X3 1-375): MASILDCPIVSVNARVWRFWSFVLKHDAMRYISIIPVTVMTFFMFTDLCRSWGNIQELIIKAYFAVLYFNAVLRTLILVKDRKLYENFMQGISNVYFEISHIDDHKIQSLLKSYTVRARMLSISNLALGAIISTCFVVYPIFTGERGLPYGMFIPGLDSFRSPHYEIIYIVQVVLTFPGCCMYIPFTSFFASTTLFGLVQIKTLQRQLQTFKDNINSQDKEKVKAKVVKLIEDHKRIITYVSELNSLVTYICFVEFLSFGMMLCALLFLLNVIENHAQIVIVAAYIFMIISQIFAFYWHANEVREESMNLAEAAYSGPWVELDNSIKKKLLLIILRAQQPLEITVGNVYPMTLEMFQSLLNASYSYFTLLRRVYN
T1 sequence (B0FAQ4 1-474 partner): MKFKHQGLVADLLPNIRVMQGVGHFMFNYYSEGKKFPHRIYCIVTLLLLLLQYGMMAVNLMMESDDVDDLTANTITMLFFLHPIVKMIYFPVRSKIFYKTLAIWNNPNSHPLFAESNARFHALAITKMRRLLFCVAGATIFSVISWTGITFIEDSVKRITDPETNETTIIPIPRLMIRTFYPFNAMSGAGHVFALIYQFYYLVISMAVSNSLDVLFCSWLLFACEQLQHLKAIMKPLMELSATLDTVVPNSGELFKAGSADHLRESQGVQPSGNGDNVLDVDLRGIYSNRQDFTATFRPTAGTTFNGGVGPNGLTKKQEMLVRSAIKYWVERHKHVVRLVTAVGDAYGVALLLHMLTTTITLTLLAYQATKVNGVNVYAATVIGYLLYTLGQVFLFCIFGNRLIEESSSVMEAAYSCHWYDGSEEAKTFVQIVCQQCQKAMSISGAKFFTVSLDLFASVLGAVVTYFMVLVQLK
Source text: whole-cell voltage clamp, HEK293T cells on AaOR10/Orco (Ae. aegypti OR10 with A. bakeri Orco) | whole-cell currents of AaOR10/Orco are indistinguishable in EC50 and overall dose-response parameters | measure their response to indole and o-cresol, canonical odorants known to activate AaOR10 heteromers

[2] = target: T2, AaOR10 in complex with the Orco from Ae. aegypti (Aedes aegypti, UniProt Q177X3); test: whole-cell voltage clamp, HEK293T cells; type: cell-based; conditions: agonist
T2 construct: gene GPRor10; both subunits from Ae. aegypti, co-expressed in HEK293T cells; stoichiometry not determined; with Odorant receptor coreceptor
T2 sequence (Q177X3 1-375): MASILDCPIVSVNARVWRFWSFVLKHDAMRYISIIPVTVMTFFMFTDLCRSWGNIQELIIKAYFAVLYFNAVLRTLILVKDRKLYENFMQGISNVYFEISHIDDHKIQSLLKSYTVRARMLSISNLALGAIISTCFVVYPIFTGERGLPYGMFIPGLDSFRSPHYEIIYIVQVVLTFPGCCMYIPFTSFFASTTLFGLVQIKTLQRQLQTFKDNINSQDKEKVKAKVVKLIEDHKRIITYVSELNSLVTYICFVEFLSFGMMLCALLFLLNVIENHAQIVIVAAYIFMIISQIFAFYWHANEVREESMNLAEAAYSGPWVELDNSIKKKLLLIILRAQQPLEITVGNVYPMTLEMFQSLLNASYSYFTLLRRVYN
T2 sequence (Q178U6 1-478 partner): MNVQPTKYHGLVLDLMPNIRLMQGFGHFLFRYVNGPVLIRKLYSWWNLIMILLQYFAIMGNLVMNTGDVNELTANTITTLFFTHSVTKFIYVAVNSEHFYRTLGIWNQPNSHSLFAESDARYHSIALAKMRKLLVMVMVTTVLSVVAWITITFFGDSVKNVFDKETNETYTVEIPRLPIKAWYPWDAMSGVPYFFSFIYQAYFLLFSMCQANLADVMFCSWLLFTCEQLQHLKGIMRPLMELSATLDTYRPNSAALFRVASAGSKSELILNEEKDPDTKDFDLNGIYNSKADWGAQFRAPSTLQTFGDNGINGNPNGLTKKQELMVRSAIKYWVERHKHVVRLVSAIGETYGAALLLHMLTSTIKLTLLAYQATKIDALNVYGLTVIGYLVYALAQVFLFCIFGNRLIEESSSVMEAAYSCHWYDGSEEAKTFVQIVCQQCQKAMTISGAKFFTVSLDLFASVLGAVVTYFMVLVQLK
Source text: whole-cell voltage clamp, HEK293T cells on AaOR10 in complex with the Orco from Ae. aegypti | those obtained with AaOR10 in complex with the Orco from Ae. aegypti | AaOR10 with either A. bakeri (black) or Ae. aegypti Orco (gold)

[3] = target: T1, AaOR10/Orco (Ae. aegypti OR10 with A. bakeri Orco); test: cryo-EM structure of complex; type: binding; conditions: 2.9 Å; one site, in the OR10 subunit (S2, S3, S4, S6)
[4] = target: Anopheles gambiae odorant receptor OR28 (Anopheles gambiae); test: cryo-EM structure; AgOR28 co-expressed with A. bakeri Orco, purified complex; unbound and 2,4,5-trimethylthiazole (TMT)-bound states
[5] = target: Aedes aegypti odorant receptor OR10 (Aedes aegypti); test: cryo-EM structure; AaOR10/Orco heteromers co-expressed in HEK293 cells (1:1 OR to Orco virus), purified by an affinity tag on the OR subunit, in detergent micelle; unbound and o-cresol-bound states
[6] = far from saturation at high concentration, limiting goodness of fit

Molecule: c1ccc2[nH]ccc2c1 [indole]
EC50 ([1]; Hill coefficient about one): 1.09 µM
EC50 [2]: 1.51 µM

Molecule: Cc1ccccc1O [o-cresol]
EC50 [1, 6]: 13.3 µM
EC50 [2, 6]: 11.3 µM
cryo-EM structure of complex [3]: determined the cryo-EM structure of the AaOR10/Orco complex bound to o-cresol

stoichiometry N (Orco subunits per OR subunit) [4]: 3
stoichiometry N (Orco subunits per OR subunit) [5]: 3
B1: Apocrypta bakeri odorant receptor co-receptor Orco (receptor)
chain: MKFKHQGLVADLLPNIRVMQGVGHFMFNYYSEGKKFPHRIYCIVTLLLLLLQYGMMAVNLMMESDDVDDLTANTITMLFFLHPIVKMIYFPVRSKIFYKTLAIWNNPNSHPLFAESNARFHALAITKMRRLLFCVAGATIFSVISWTGITFIEDSVKRITDPETNETTIIPIPRLMIRTFYPFNAMSGAGHVFALIYQFYYLVISMAVSNSLDVLFCSWLLFACEQLQHLKAIMKPLMELSATLDTVVPNSGELFKAGSADHLRESQGVQPSGNGDNVLDVDLRGIYSNRQDFTATFRPTAGTTFNGGVGPNGLTKKQEMLVRSAIKYWVERHKHVVRLVTAVGDAYGVALLLHMLTTTITLTLLAYQATKVNGVNVYAATVIGYLLYTLGQVFLFCIFGNRLIEESSSVMEAAYSCHWYDGSEEAKTFVQIVCQQCQKAMSISGAKFFTVSLDLFASVLGAVVTYFMVLVQLK
